# Results from a melting point compilation (Tetko et al.; mined from patent text by program, amines drawn as free bases though some values may be those of a salt).
row,SMILES,melting point [°C]
1,CC(C)(C)c1cc(SCCOC(=O)c2cc(C(C)(C)C)c(O)c(C(C)(C)C)c2)cc(C(C)(C)C)c1O,136 to 139
2,CCOC(=O)C=Cc1ccc(OCc2nc(-c3ccco3)oc2C)c(OC)c1,142 to 143
3,Cc1cc(NC(=O)C(C)(O)COc2ccc(CC#N)cc2)ccc1[N+](=O)[O-] (centres undefined),143 to 145
4,C=CCOc1cccn2c(=O)cc(C)nc12,113 to 115
5,Cc1cc(C(N)=O)ccc1N=C1SC[C@H](CC(C)C)N1CC(C)C,130 to 131
6,NCc1ccc(N2CCN(c3ccc(OCC(=O)O)cc3)C2=O)cc1,> 250
7,Cc1cccnc1NN,119
8,Brc1ccc(SCCOCCSc2ccc(Br)cc2)cc1,53
9,FC(F)(F)c1cc(Cl)c2nc(N3CCN(c4ncccc4C(F)(F)F)CC3)[nH]c2c1,204
10,c1ccc(CN(c2ccccc2)c2cccc3ccccc23)cc1,120 to 123
11,Fc1cc(N=C2NCCN2)c(F)c(F)c1F,141 to 143
12,OCC1OC(n2cnc3c(Cl)cc(Cl)nc32)C(O)C1O (centres undefined),148 to 150
13,CCCCCCCCS(=O)(=O)ON=C(C#N)c1cccs1,77 to 82
14,O=NCNC1=Nc2ccsc2C(c2ccccc2)=NC1,156 to 159
15,CCN(CC)CCN1C(=O)c2cscc2N(C)c2ccccc21,92 to 93
16,Cc1ccccc1CN1CCc2ccc(C(=O)CCC(=O)N3CCC(c4ccc(Cl)cc4)CC3)cc2CC1,108 to 109
17,CC1(C2CCC3C4CCC5CC(O)CCC5(C)C4C(OC(=O)CCl)CC32C)OCCO1 (centres undefined),194 to 202
18,N#Cc1c(Cc2ccccc2)nn(C2CCCC2)c1N,180 to 182
19,COc1ccc2[nH]cc(CCCNCC3COc4ccccc4O3)c2c1 (centres undefined),135 to 136
20,CNc1cc(NC)c(C(=O)NCCC(=O)OC)cc1NC(=O)c1ccc(C#N)cc1,208 to 210
21,CCC(=O)C(CCCCc1ccc(O)cc1)C(=O)CC,67 to 69
22,CCCc1c(C(=O)OCC)c2c3c(ccc2n1C)OC1c2ccc(OC)cc2CCN1C3 (centres undefined),150 to 151
23,CCn1ncc2c(NCC3(O)CCCCC3)c3cc(OC)ccc3nc21,201 to 203
24,O=C(NCCCn1ccnc1)c1cccc(Cl)c1,125 to 127
25,CC(C)c1n[nH]c2c(Cl)nc(Cl)nc12,> 250
26,COc1cccc(/C=C/c2nc3c([nH]2)c(=O)n(C)c(=O)n3C)c1OC,289 to 290
27,O=[N+]([O-])c1ccc(CN2CCNCCNCCNCC2)cc1,128 to 129

# The remaining lines, values ahead:
row,melting point [°C],SMILES
1,65 to 67,CC(=O)O[C@@H](c1cnnn1-c1ccccc1)[C@@H](CCN1CCC(N2CCCCC2=O)CC1)c1ccc(Cl)c(Cl)c1 (racemic)
2,197 to 199,CCCc1nc2c(N)nc3cc(Oc4ccccc4N)ccc3c2n1CC(C)C
3,> 250,Cc1cc(-c2ccc(C(F)(F)F)cc2)cc(-c2ccnc(-c3ccc(S(N)(=O)=O)s3)c2)n1
4,105 to 107,CS(=O)(=O)c1ccc(Cc2ccc(CCNS(=O)(=O)c3ccc(Cl)cc3)c(CCC(=O)O)c2)cc1
5,146,COc1c(Cl)cc(-c2cc(F)c(F)cc2-c2ccc(S(N)(=O)=O)cc2)cc1Cl
6,> 300,COc1cc(OC)c2c(=O)[nH]c(-c3ccc(OC)c(-c4ccc(C(=O)N(C)C)cc4Cl)c3)nc2c1
7,160 to 163,Cc1ccccc1-c1cc(Cl)cc2c1OC(CN)C2 (centres undefined)
8,225,Cc1[nH]c(=S)n(Nc2cccc(Cl)c2)c1-c1ccc(Cl)cc1
9,64,COC(=O)CCC#Cc1cc(Cl)ccc1NS(=O)(=O)c1cccc(Cl)c1Cl
10,112 to 114,OCc1ccc(-c2ncn(-c3ccc(OC(F)(F)F)cc3)n2)cc1
11,179 to 180,CCOc1cc(OCC(=O)O)cc2c1C(=O)N(COC(=O)c1c(Cl)cccc1Cl)S2(=O)=O
12,127 to 129,O=C(O)CCC(=O)c1ccc(-c2ccc(Cl)cc2F)cc1
